Results on 16 compounds are retold here after patent US20230295109A1, “PYRIDINONE COMPOUNDS FOR THE TREATMENT OF AUTOIMMUNE DISEASE” (F. Hoffmann-La Roche AG, priority 2020, published 2023).

A short description of the series: Parallel Artificial Membrane Permeability Assay (PAMPA). It is filed as in vitro ADME. The settings on record: for Membrane Retention / Papp at 4 h: PAMPA; for Membrane Retention: pH 7.40, 4 hours; for Papp at 4 h: pH 7.4, pH 7.40, room temperature, read-out: PAMPA Pe; for PAMPA category: class from Pe and membrane retention. As for the experimental part:
PAMPA (Parallel Artificial Membrane Permeability Assay) is a first-line permeability screen for drug candidates. This assay mimics the transcellular absorption conditions using an artificial phospholipid membrane and generates a permeability value that can be used for compound ranking and optimization as well as input parameters for in silico models to predict intestinal absorption.
Permeation experiments are carried out in hydrophobic PVDF 96-well microtiter filter plates (MultiScreen Filter Plate, Millipore, #MAIPN4550). Each well is coated with PVDF membrane, which is prepared with 5 µL Dodecane (Sigma, D221104) that contains 1% lecithin (Sigma, P3556-1G).
The typical PAMPA experimental protocol is as follows: The donor plate is placed on a Teflon acceptor plate that has been pre-filled with 150 µL of 100 mM PBS buffer (2.6 g KH2PO4 and 18.5 g K2HPO4.3H2O are dissolved in about 1000 mL of ultra-pure water and mixed thoroughly. The pH is adjusted to 7.40 ± 0.05, using either 1 M sodium hydroxide or 1 M hydrochloric acid.) containing 5% DMSO. The filter on the bottom of each acceptor well is filled with 300 µL of 100 mM PBS buffer (2.6 g KH2PO4 and 18.5 g K2HPO4.3H2O are dissolved in about 1000 mL of ultra-pure water, mixed thoroughly. The pH was adjusted to 7.40 ± 0.05, using either 1 M sodium hydroxide or 1 M hydrochloric acid.). The resulting sandwich is incubated at room temperature under constant shaking (300 rpm) for 4 hours. The sandwich is then disassembled. Before incubation, spike 20 µL dosing solution and mix with 250 µL PBS and 130 µL quench solution (acetonitrile) as T0 sample. After incubation, collect 270 µL solutions from acceptor chamber, followed by the addition of 130 µL acetonitrile. Collect 20 µL solution from donor chamber and add 250 µL PBS and 130 µL acetonitrile. The concentration of compound in all samples are determined by LC-MS/MS and the equations for determining the permeability (Pe, 10^-6 cm/s ) are as follows.
VD is the volume of the donor well; VR is the volume of the acceptor well; Area is the active surface area of membrane; Time is the incubation time (14,400 s in this assay); CR and CD are the concentrations of compound in acceptor and donor solutions, respectively, at the completion of the assay; C0 is the concentration of compound in donor solution before incubation.
The main readout of the PAMPA assay is the permeability value Pe expressed in 10^-6 cm/s. Secondary readouts determined are the amounts of compound in the donor and acceptor compartments as well as compound retention in the membrane. Depending on the permeation rate and the membrane retention, compounds are classified as “low” (Pe < 0.2 and membrane retention <20%) or “medium & high” (Pe >= 0.2; or Pe < 0.2 and membrane retention >= 20%). Each sample is measured in triplicate; the standard deviation is determined for the permeation constant Pe.
For orientation: In PAMPA a lipid-coated filter parts donor from acceptor wells.

Take `Cc1cc(-c2ccc(N3CCC(N4CCNCC4)CC3)nc2C(C)C)cn(C)c1=O` [Example 18, 5-[2-isopropyl-6-(4-piperazin-1-yl-1-piperidyl)-3-pyridyl]-1,3-dimethyl-pyridin-2-one]: the “Membrane Retention” value is 8.650%; the Papp at 4 h stood at 0.74 ×10⁻⁶ cm/s; the PAMPA category entry is “medium & high (“medium & high” (Pe >= 0.2; or Pe < 0.2 and membrane retention >= 20%))”.

Consider `Cc1cc(-c2ccc(N3CCN(Cc4ccc(N5CCNCC5)cc4)CC3)nc2C(C)C)cn(C)c1=O` [Example 13, 5-[2-isopropyl-6-[4-[(4-piperazin-1-ylphenyl)methyl]piperazin-1-yl]-3-pyridyl]-1,3-dimethyl-pyridin-2-one], for which the “Membrane Retention” value is recorded as 56.550%; the Papp at 4 h amounted to 0.46 ×10⁻⁶ cm/s; the PAMPA category entry was “medium & high (“medium & high” (Pe >= 0.2; or Pe < 0.2 and membrane retention >= 20%))”.

Regarding `CCc1nc(N2CCN(Cc3cnc(N4CCOC[C@@H](N)C4)nc3)CC2)ccc1-c1cc(C)c(=O)n(C)c1` [Example 4, 5-[6-[4-[[2-[(6S)-6-amino-1,4-oxazepan-4-yl]pyrimidin-5-yl]methyl]piperazin-1-yl]-2-ethyl-3-pyridyl]-1,3-dimethyl-pyridin-2-one], the “Membrane Retention” value was found to be 15.690%; the Papp at 4 h stood at 0.75 ×10⁻⁶ cm/s; the PAMPA category entry was “medium & high (“medium & high” (Pe >= 0.2; or Pe < 0.2 and membrane retention >= 20%))”.

`Cc1cc(-c2ccc(N3CCN(Cc4cnc(N5CCNCC5)cn4)CC3)nc2C(C)C)cn(C)c1=O` [Example 8, 5-[2-isopropyl-6-[4-[(5-piperazin-1-ylpyrazin-2-yl)methyl]piperazin-1-yl]-3-pyridyl]-1,3-dimethyl-pyridin-2-one]: the “Membrane Retention” value amounted to 21.370%; the Papp at 4 h was 0.95 ×10⁻⁶ cm/s; the PAMPA category result is “medium & high (“medium & high” (Pe >= 0.2; or Pe < 0.2 and membrane retention >= 20%))”.

In the case of `Cc1cc(-c2ccc(N3CCN(Cc4ncc(N5CCNCC5)cn4)CC3)nc2C(C)C)cn(C)c1=O` [Example 12, 5-[2-isopropyl-6-[4-[(5-piperazin-1-ylpyrimidin-2-yl)methyl]piperazin-1-yl]-3-pyridyl]-1,3-dimethyl-pyridin-2-one], the “Membrane Retention” value was found to be 15.270%; the Papp at 4 h is 0.46 ×10⁻⁶ cm/s; the PAMPA category result was “medium & high (“medium & high” (Pe >= 0.2; or Pe < 0.2 and membrane retention >= 20%))”.

`Cc1cc(-c2ccc(N3CCN(Cc4ccc(N5CCNCC5)nc4)CC3)nc2C(C)C)cn(C)c1=O` [Example 11, 5-[2-isopropyl-6-[4-[(6-piperazin-1-yl-3-pyridyl)methyl]piperazin-1-yl]-3-pyridyl]-1,3-dimethyl-pyridin-2-one]: the “Membrane Retention” value was 24.900%; the Papp at 4 h stood at 0.6 ×10⁻⁶ cm/s; the PAMPA category result was “medium & high (“medium & high” (Pe >= 0.2; or Pe < 0.2 and membrane retention >= 20%))”.

Take `CCc1nc(N2CCN(Cc3ccc(N4CC5(CNCCO5)C4)nc3)CC2)ccc1-c1cc(C)c(=O)n(C)c1` [Example 2, 5-[2-ethyl-6-[4-[[6-(5-oxa-2,8-diazaspiro[3.5]nonan-2-yl)-3 pyridyl]methyl]piperazin-1-yl]-3-pyridyl]-1,3-dimethyl-pyridin-2-one]: the “Membrane Retention” value came out at 10.600%; the Papp at 4 h came out at 0.49 ×10⁻⁶ cm/s; the PAMPA category result is “medium & high (“medium & high” (Pe >= 0.2; or Pe < 0.2 and membrane retention >= 20%))”.

With `CCc1nc(N2CCN3CCN(c4cnc(N5CC6(CNCCO6)C5)nc4)CC3C2)ccc1-c1cc(C)c(=O)n(C)c1` (stereo not drawn) [Example 19, 5-[2-ethyl-6-[2-[2-(5-oxa-2,8-diazaspiro[3.5]nonan-2-yl)pyrimidin-5-yl]-3,4,6,7,9,9a-hexahydro-1H-pyrazino[1,2-a]pyrazin-8-yl]-3-pyridyl]-1,3-dimethyl-pyridin-2-one], the “Membrane Retention” value is 37.320%; the Papp at 4 h stood at 0.87 ×10⁻⁶ cm/s; the PAMPA category entry was “medium & high (“medium & high” (Pe >= 0.2; or Pe < 0.2 and membrane retention >= 20%))”.

Take `Cc1cc(-c2ccc(N3CCN(Cc4cnc(N5CC6(CNCCO6)C5)nc4)CC3)nc2C(C)C)cn(C)c1=O` [Example 6, 5-[2-isopropyl-6-[4-[[2-(5-oxa-2,8-diazaspiro[3.5]nonan-2-yl)pyrimidin-5-yl]methyl]piperazin-1-yl]-3-pyridyl]-1,3-dimethyl-pyridin-2-one]: the “Membrane Retention” value is on record as 19.190%; the Papp at 4 h is 0.65 ×10⁻⁶ cm/s; the PAMPA category entry was “medium & high (“medium & high” (Pe >= 0.2; or Pe < 0.2 and membrane retention >= 20%))”.

Regarding `Cc1cc(-c2ccc(N3CCN(Cc4ccc(N5CCNCC5)cn4)CC3)nc2C(C)C)cn(C)c1=O` [Example 7, 5-[2-isopropyl-6-[4-[(5-piperazin-1-yl-2-pyridyl)methyl]piperazin-1-yl]-3-pyridyl]-1,3-dimethyl-pyridin-2-one], the “Membrane Retention” value came out at 2.530%; the Papp at 4 h stood at 0.74 ×10⁻⁶ cm/s; the PAMPA category entry is “medium & high (“medium & high” (Pe >= 0.2; or Pe < 0.2 and membrane retention >= 20%))”.

`Cc1cc(-c2ccc(N3CCN(Cc4cnc(N5CC(C)(N)C5)nc4)CC3)nc2C(C)C)cn(C)c1=O` [Example 10, 5-[6-[4-[[2-(3-amino-3-methyl-azetidin-1-yl)pyrimidin-5-yl]methyl]piperazin-1-yl]-2-isopropyl-3-pyridyl]-1,3-dimethyl-pyridin-2-one]: the “Membrane Retention” value is given as 7.250%; the Papp at 4 h came to 0.6 ×10⁻⁶ cm/s; the PAMPA category entry was “medium & high (“medium & high” (Pe >= 0.2; or Pe < 0.2 and membrane retention >= 20%))”.

`CCc1nc(N2CCN(Cc3cnc(N4CC5(CNCCO5)C4)nc3)CC2)ccc1-c1cc(C)c(=O)n(C)c1` [Example 1, 5-[2-ethyl-6-[4-[[2-(5-oxa-2,8-diazaspiro[3.5]nonan-2-yl)pyrimidin-5-yl]methyl]piperazin-1-yl]-3-pyridyl]-1,3-dimethyl-pyridin-2-one]: the “Membrane Retention” value is listed as -11.520%; the Papp at 4 h came to 0.57 ×10⁻⁶ cm/s; the PAMPA category result is “medium & high (“medium & high” (Pe >= 0.2; or Pe < 0.2 and membrane retention >= 20%))”.

Turning to `Cc1cc(-c2ccc(N3CCN(Cc4ccc(N5CCNCC5)cc4)CC3)nc2C(F)F)cn(C)c1=O` [Example 17, 5-[2-(difluoromethyl)-6-[4-[(4-piperazin-1-ylphenyl)methyl]piperazin-1-yl]-3-pyridyl]-1,3-dimethyl-pyridin-2-one], the “Membrane Retention” value was determined as 50.950%; the Papp at 4 h is 1.5 ×10⁻⁶ cm/s; the PAMPA category entry was “medium & high (“medium & high” (Pe >= 0.2; or Pe < 0.2 and membrane retention >= 20%))”.

Consider `Cc1cc(-c2ccc(N3CCN4CCN(c5ccc(N6CCNCC6)nc5)CC4C3)nc2C(C)C)cn(C)c1=O` (stereo not drawn) [Example 16, 5-[2-isopropyl-6-[8-(6-piperazin-1-yl-3-pyridyl)-3,4,6,7,9,9a-hexahydro-1H-pyrazino[1,2-a]pyrazin-2-yl]-3-pyridyl]-1,3-dimethyl-pyridin-2-one], for which the “Membrane Retention” value stood at 30.770%; the Papp at 4 h stood at 0.24 ×10⁻⁶ cm/s; the PAMPA category result was “medium & high (“medium & high” (Pe >= 0.2; or Pe < 0.2 and membrane retention >= 20%))”.

`CCc1nc(N2CCN(Cc3cnc(N4CC(C)(N)C4)nc3)CC2)ccc1-c1cc(C)c(=O)n(C)c1` [Example 3, 5-[6-[4-[[2-(3-amino-3-methyl-azetidin-1-yl)pyrimidin-5-yl]methyl]piperazin-1-yl]-2-ethyl-3-pyridyl]-1,3-dimethyl-pyridin-2-one]: the “Membrane Retention” value is given as -1.260%; the Papp at 4 h turned out to be 0.53 ×10⁻⁶ cm/s; the PAMPA category result is “medium & high (“medium & high” (Pe >= 0.2; or Pe < 0.2 and membrane retention >= 20%))”.

`CCc1nc(N2CCN(Cc3ccc(N4CCNCC4)cc3)CC2)ccc1-c1cc(C)c(=O)n(C)c1` [Example 5, 5-[2-ethyl-6-[4-[(4-piperazin-1-ylphenyl)methyl]piperazin-1-yl]-3-pyridyl]-1,3-dimethyl-pyridin-2-one]: the “Membrane Retention” value was determined as 18.250%; the Papp at 4 h amounted to 1.5 ×10⁻⁶ cm/s; the PAMPA category entry was “medium & high (“medium & high” (Pe >= 0.2; or Pe < 0.2 and membrane retention >= 20%))”.
